# Data as given in patent publication US8541588B2, “Sulfonamide derivatives” (Pfizer Limited, priority 2009, dated 2013).
# Target: T1, Nav1.7 (or SCN9A) channel; HEK cells stably transfected with hSCN9A (Homo sapiens, UniProt Q15858)
# T1 construct: expressed in transfected cells
# Assay: Nav1.7 block, PatchXpress 7000 automated whole-cell voltage clamp, estimated IC50 (EIC50)
# Type: cell-based
# Details: estimated IC50; hSCN9A HEK cells, PatchXpress platform; Examples 815-1040
# T1 sequence (Q15858 whole entry): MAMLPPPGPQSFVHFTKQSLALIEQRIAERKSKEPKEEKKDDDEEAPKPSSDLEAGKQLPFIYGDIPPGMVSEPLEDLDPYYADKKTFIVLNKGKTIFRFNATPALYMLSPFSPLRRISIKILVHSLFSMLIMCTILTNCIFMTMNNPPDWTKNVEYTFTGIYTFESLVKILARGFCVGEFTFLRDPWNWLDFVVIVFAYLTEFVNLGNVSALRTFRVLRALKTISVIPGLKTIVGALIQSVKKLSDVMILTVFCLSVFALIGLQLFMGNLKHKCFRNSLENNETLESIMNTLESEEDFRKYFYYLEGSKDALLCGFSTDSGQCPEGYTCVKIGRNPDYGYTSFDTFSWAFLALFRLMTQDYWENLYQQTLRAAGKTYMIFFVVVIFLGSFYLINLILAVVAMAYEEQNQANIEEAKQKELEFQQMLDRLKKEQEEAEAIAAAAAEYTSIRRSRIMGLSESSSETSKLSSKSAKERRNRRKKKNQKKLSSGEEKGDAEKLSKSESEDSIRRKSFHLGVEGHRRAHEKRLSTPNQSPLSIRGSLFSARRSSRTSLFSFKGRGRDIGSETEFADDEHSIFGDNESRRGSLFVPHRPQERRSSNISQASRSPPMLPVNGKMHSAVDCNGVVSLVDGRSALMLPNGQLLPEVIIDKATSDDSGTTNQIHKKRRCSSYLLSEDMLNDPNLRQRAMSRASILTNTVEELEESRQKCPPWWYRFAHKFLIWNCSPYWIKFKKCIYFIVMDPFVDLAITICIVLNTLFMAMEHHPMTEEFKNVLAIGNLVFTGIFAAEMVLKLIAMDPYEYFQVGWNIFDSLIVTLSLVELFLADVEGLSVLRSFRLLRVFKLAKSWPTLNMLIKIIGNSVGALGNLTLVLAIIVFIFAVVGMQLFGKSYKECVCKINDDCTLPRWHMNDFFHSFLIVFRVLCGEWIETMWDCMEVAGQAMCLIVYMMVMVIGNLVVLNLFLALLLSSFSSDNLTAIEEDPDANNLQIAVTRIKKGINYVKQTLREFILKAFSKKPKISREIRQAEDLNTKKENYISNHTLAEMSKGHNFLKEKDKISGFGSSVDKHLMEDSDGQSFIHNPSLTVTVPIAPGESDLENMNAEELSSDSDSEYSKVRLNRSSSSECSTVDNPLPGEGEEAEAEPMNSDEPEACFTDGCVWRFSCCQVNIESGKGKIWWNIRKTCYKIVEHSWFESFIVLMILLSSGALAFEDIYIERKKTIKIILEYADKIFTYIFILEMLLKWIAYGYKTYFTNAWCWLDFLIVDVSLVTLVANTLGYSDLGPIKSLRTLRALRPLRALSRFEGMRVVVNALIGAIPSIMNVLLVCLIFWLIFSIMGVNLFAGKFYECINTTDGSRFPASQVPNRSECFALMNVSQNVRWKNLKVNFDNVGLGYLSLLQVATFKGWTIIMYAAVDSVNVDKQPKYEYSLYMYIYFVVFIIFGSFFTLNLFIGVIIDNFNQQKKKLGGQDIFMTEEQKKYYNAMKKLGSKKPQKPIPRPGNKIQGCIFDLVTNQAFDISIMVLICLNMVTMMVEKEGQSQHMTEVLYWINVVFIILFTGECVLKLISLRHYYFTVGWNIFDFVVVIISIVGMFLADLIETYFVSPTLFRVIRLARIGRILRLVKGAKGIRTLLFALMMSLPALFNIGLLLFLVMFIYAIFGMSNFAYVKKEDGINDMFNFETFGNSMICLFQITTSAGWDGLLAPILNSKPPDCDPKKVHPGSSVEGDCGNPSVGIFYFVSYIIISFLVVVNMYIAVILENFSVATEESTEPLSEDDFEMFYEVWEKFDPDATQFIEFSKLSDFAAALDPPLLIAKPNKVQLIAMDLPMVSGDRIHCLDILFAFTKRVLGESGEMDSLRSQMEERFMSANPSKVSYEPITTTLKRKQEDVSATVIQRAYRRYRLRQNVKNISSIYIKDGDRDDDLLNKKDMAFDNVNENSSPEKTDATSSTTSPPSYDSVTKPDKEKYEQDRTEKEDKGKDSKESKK
row,IC50,Compound
1,>10 nM,"N#Cc1cc(S(=O)(=O)Nc2ncc(Cl)s2)ccc1Oc1ccc(F)cc1-c1cccc(N)n1 [Example 991, 4-[2-(6-aminopyridin-2-yl)-4-fluorophenoxy]-N-(5-chloro-1,3-thiazol-2-yl)-3-cyanobenzenesulfonamide]"
2,540 nM,"N#Cc1cc(S(=O)(=O)Nc2ncc(Cl)s2)ccc1Oc1cc(F)ccc1-c1ccn[nH]1 [Example 992, N-(5-chloro-1,3-thiazol-2-yl)-3-cyano-4-[5-fluoro-2-(1H-pyrazol-5-yl)phenoxy]benzenesulfonamide]"
3,9500 nM,"N#Cc1cnn(-c2ccc(Oc3ccc(S(=O)(=O)Nc4nccs4)cc3C#N)cc2)c1 [Example 994, 3-cyano-4-[4-(4-cyano-1H-pyrazol-1-yl)phenoxy]-N-1,3-thiazol-2-ylbenzenesulfonamide]"
4,1300 nM,"COC(=O)N1CC(c2cc(Cl)ccc2Oc2ccc(S(=O)(=O)Nc3nccs3)cc2C#N)C1 [Example 995, methyl 3-(5-chloro-2-{2-cyano-4-[(1,3-thiazol-2-ylamino)sulfonyl]phenoxy}phenyl)azetidine-1-carboxylate]"
5,760 nM,"CCOC(=O)c1cnn(-c2ccc(Oc3ccc(S(=O)(=O)Nc4nccs4)cc3C#N)cc2)c1 [Example 996, ethyl 1-(4-{2-cyano-4-[(1,3-thiazol-2-ylamino)sulfonyl]phenoxy}phenyl)-1H-pyrazole-4-carboxylate]"
6,3300 nM,"N#Cc1cc(S(=O)(=O)Nc2ncns2)ccc1Oc1ccc(Cl)cc1-c1ccc(C(=O)O)cc1 [Example 999, 5′-chloro-2′-{2-cyano-4-[(1,2,4-thiadiazol-5-ylamino)sulfonyl]phenoxy}biphenyl-4-carboxylic acid]"
7,130 nM,"N#Cc1cc(S(=O)(=O)Nc2ncns2)ccc1Oc1ccc(Cl)cc1-c1cccc(CC(=O)O)c1 [Example 1000, (5′-chloro-2′-{2-cyano-4-[(1,2,4-thiadiazol-5-ylamino)sulfonyl]phenoxy}biphenyl-3-yl)acetic acid]"
8,820 nM,"N#Cc1cc(S(=O)(=O)Nc2ncns2)ccc1Oc1ccc(Cl)cc1-c1ccc(CC(=O)O)cc1 [Example 1001, (5′-chloro-2′-{2-cyano-4-[(1,2,4-thiadiazol-5-ylamino)sulfonyl]phenoxy}biphenyl-4-yl)acetic acid]"
9,140 nM,"N#Cc1cc(S(=O)(=O)Nc2ncns2)ccc1Oc1ccc(Cl)cc1-c1cccc(C(=O)O)c1 [Example 1002, 5′-chloro-2′-{2-cyano-4-[(1,2,4-thiadiazol-5-ylamino)sulfonyl]phenoxy}biphenyl-3-carboxylic acid]"
10,20 nM,"COC(=O)c1cccc(-c2cc(Cl)ccc2Oc2ccc(S(=O)(=O)Nc3ncns3)cc2C#N)c1 [Example 1003, methyl 5′-chloro-2′-{2-cyano-4-[(1,2,4-thiadiazol-5-ylamino)sulfonyl]phenoxy}biphenyl-3-carboxylate]"
11,7100 nM,"N#Cc1cc(S(=O)(=O)Nc2ccc(F)cn2)ccc1Oc1ccc(F)cc1C1CC1 [Example 1004, 3-cyano-4-(2-cyclopropyl-4-fluorophenoxy)-N-(5-fluoropyridin-2-yl)benzenesulfonamide]"
12,>3000 nM,"N#Cc1cc(S(=O)(=O)Nc2ccc(F)cn2)ccc1Oc1ccccc1C1CCCCO1 (centres unmarked) [Example 1005, 3-cyano-N-(5-fluoropyridin-2-yl)-4-[2-(tetrahydro-2H-pyran-2-yl)phenoxy]benzenesulfonamide]"
13,3300 nM,"N#Cc1cc(S(=O)(=O)Nc2cccs2)ccc1Oc1ccccc1-c1ccccc1 [Example 1007, 4-(biphenyl-2-yloxy)-3-cyano-N-2-thienylbenzenesulfonamide]"
14,740 nM,"CN(C)C(=O)c1cccc(-c2ccccc2)c1Oc1ccc(S(=O)(=O)Nc2ncns2)cc1C#N [Example 1008, 2-{2-cyano-4-[(1,2,4-thiadiazol-5-ylamino)sulfonyl]phenoxy}-N,N-dimethylbiphenyl-3-carboxamide]"
15,21 nM,"Cc1ncccc1-c1cc(Cl)ccc1Oc1ccc(S(=O)(=O)Nc2ncns2)cc1C#N [Example 1009, 4-[4-chloro-2-(2-methylpyridin-3-yl)phenoxy]-3-cyano-N-1,2,4-thiadiazol-5-ylbenzenesulfonamide]"
16,820 nM,"Cc1nccnc1-c1cc(Cl)ccc1Oc1ccc(S(=O)(=O)Nc2ncns2)cc1C#N [Example 1010, 4-[4-chloro-2-(3-methylpyrazin-2-yl)phenoxy]-3-cyano-N-1,2,4-thiadiazol-5-ylbenzenesulfonamide]"
17,28 nM,"Cc1cnccc1-c1cc(Cl)ccc1Oc1ccc(S(=O)(=O)Nc2ncns2)cc1C#N [Example 1011, 4-[4-chloro-2-(3-methylpyridin-4-yl)phenoxy]-3-cyano-N-1,2,4-thiadiazol-5-ylbenzenesulfonamide]"
18,270 nM,"CN1CC(n2nccc2-c2cc(Cl)ccc2Oc2cc(F)c(S(=O)(=O)Nc3ncccn3)cc2Cl)C1 [Example 1012, 5-chloro-4-{4-chloro-2-[1-(1-methylazetidin-3-yl)-1H-pyrazol-5-yl]phenoxy}-2-fluoro-N-pyrimidin-2-ylbenzenesulfonamide]"

row,IC50,Compound
1,4.8 nM,"Nc1cc(-c2cc(C(F)(F)F)ccc2Oc2ccc(S(=O)(=O)Nc3ccncn3)cc2Cl)ccn1 [Example 1013, 4-[2-(2-aminopyridin-4-yl)-4-(trifluoromethyl)phenoxy]-3-chloro-N-pyrimidin-4-ylbenzenesulfonamide]"
2,10 nM,"Nc1cc(-c2cc(Cl)ccc2Oc2ccc(S(=O)(=O)Nc3cccnn3)cc2Cl)ccn1 [Example 1014, 4-[2-(2-aminopyridin-4-yl)-4-chlorophenoxy]-3-chloro-N-pyridazin-3-ylbenzenesulfonamide]"
3,2.1 nM,"CN1CC(n2nccc2-c2cc(OC(F)(F)F)ccc2Oc2cc(F)c(S(=O)(=O)Nc3nncs3)cc2Cl)C1 [Example 1017, 5-chloro-2-fluoro-4-{2-[1-(1-methylazetidin-3-yl)-1H-pyrazol-5-yl]-4-(trifluoromethoxy)phenoxy}-N-1,3,4-thiadiazol-2-ylbenzenesulfonamide]"
4,230 nM,"O=S(=O)(Nc1nncs1)c1ccc(Oc2ccc(Cl)cc2-c2ccnnc2)c(C(F)(F)F)c1 [Example 1018, 4-(4-chloro-2-pyridazin-4-ylphenoxy)-N-1,3,4-thiadiazol-2-yl-3-(trifluoromethyl)benzenesulfonamide]"
5,22 nM,"Nc1n[nH]cc1-c1cc(Cl)ccc1Oc1cc(F)c(S(=O)(=O)Nc2ncccn2)cc1Cl [Example 1019, 4-[2-(3-amino-1H-pyrazol-4-yl)-4-chlorophenoxy]-5-chloro-2-fluoro-N-pyrimidin-2-ylbenzenesulfonamide]"
6,19 nM,"Nc1cc(-c2cc(Cl)ccc2Oc2cc(F)c(S(=O)(=O)Nc3cscn3)cc2F)ccn1 [Example 1020, 4-[2-(2-aminopyridin-4-yl)-4-dchlorophenoxy]-2,5-ifluoro-N-1,3-thiazol-4-ylbenzenesulfonamide]"
7,1300 nM,"CC(C)(C#N)c1ccc(Oc2cc(F)c(S(=O)(=O)Nc3nncs3)cc2Cl)c(-c2ccnnc2)c1 [Example 1021, 5-chloro-4-[4-(1-cyano-1-methylethyl)-2-pyridazin-4-ylphenoxy]-2-fluoro-N-1,3,4-thiadiazol-2-ylbenzenesulfonamide]"
8,4 nM,"CN1CC(n2nccc2-c2cc(C(F)(F)F)ccc2Oc2cc(F)c(S(=O)(=O)Nc3cscn3)cc2F)C1 [Example 1023, 2,5-Difluoro-4-{2-[1-(1-methylazetidin-3-yl)-1H-pyrazol-5-yl]-4-(trifluoromethyl)phenoxy}-N-1,3-thiazol-4-ylbenzenesulfonamide]"
9,4.1 nM,"N#Cc1cc(S(=O)(=O)Nc2ncns2)ccc1Oc1ccc(Cl)cc1-c1ccnc(OC2CCC2)c1 [Example 1025, 4-{4-Chloro-2-[2-(cyclobutyloxy)pyridin-4-yl]phenoxy}-3-cyano-N-1,2,4-thiadiazol-5-ylbenzenesulfonamide]"
10,1.6 nM,"CN(C)c1cc(-c2cc(Cl)ccc2Oc2ccc(S(=O)(=O)Nc3ncns3)cc2C#N)ccn1 [Example 1026, 4-{4-Chloro-2-[2-(dimethylamino)pyridin-4-yl]phenoxy}-3-cyano-N-1,2,4-thiadiazol-5-ylbenzenesulfonamide]"
11,0.7 nM,"N#Cc1cc(S(=O)(=O)Nc2ncns2)ccc1Oc1ccc(Cl)cc1-c1ccnc(N2CCNCC2)n1 [Example 1030, 4-[4-Chloro-2-(2-piperazin-1-ylpyrimidin-4-yl)phenoxy]-3-cyano-N-1,2,4-thiadiazol-5-ylbenzenesulfonamide]"
12,29 nM,"Nc1cc(-c2cc(Cl)ccc2Oc2cc(F)c(S(=O)(=O)Nc3cccnn3)cc2Cl)ccn1 [Example 1031, 4-[2-(2-aminopyridin-4-yl)-4-chlorophenoxy]-5-chloro-2-fluoro-N-pyridazin-3-ylbenzenesulfonamide]"
13,13 nM,"O=S(=O)(Nc1cscn1)c1cc(F)c(Oc2ccc(Cl)cc2-c2ccnc(CN3CCC3)c2)cc1F [Example 1032, 4-{2-[2-(Azetidin-1-ylmethyl)pyridin-4-yl]-4-chlorophenoxy}-2,5-difluoro-N-1,3-thiazol-4-ylbenzenesulfonamide]"
14,3.5 nM,"CCN1CC(n2nccc2-c2cc(C(F)(F)F)ccc2Oc2ccc(S(=O)(=O)Nc3ncns3)cc2C#N)C1 [Example 1033, 3-Cyano-4-{2-[1-(1-ethylazetidin-3-yl)-1H-pyrazol-5-yl]-4-(trifluoromethyl)phenoxy}-N-1,2,4-thiadiazol-5-ylbenzenesulfonamide]"
15,11 nM,"O=S(=O)(Nc1nncs1)c1cc(Cl)c(Oc2cc(F)c(C(F)(F)F)cc2-c2ccnnc2)cc1F [Example 1034, 5-Chloro-2-fluoro-4-[5-fluoro-2-pyridazin-4-yl-4-(trifluoromethyl)phenoxy]-N-1,3,4-thiadiazol-2-ylbenzenesulfonamide]"
16,3.8 nM,"N#Cc1cc(S(=O)(=O)Nc2ncns2)ccc1Oc1cc(F)c(C(F)(F)F)cc1-c1ccnnc1 [Example 1035, 3-Cyano-4-[5-fluoro-2-pyridazin-4-yl-4-(trifluoromethyl)phenoxy]-N-1,2,4-thiodiazol-5-ylbenzenesulfonamide]"
17,21 nM,"Nc1n[nH]cc1-c1cc(Cl)ccc1Oc1cc(F)c(S(=O)(=O)Nc2ccncn2)cc1Cl [Example 1036, 4-[2-(3-amino-1H-pyrazol-4-yl)-4-chlorophenoxy]-5-chloro-2-fluoro-N-pyrimidin-4-ylbenzenesulfonamide]"
